Laboratory results: US20220362394A1, “ANTI-BCMA ANTIBODY CONJUGATES” (SUTRO BIOPHARMA, INC., priority 2019, published 2022)

System: MM.1S multiple myeloma cells
Test: Disseminated MM.1S multiple myeloma model
Assay type: in vivo, NSG mice
Conditions: Example 11
Procedure: Female NOD severe combined immune deficient (SCID) gamma (NSG) mice 8-9 weeks of age were inoculated with 5×10^6 multiple myeloma MM.1S cells into the tail vein. Randomization by body weight and start of treatment was initiated 7 days post tumor inoculation. The treatment groups are outlined in Table 18. All investigational test articles were formulated in 10 mM citrate pH 6.0, 10% sucrose. Groups 1-10 (n=6/group) were monitored for survival endpoint characterized by >20% body weight loss and clinical signs including lethargy, hind limb paralysis or moribundity. Groups 11-20 (n=3/group) were used for bone marrow harvest and analysis of tumor burden on day 28 post tumor cell inoculation. For all groups, body weights were monitored 1-2×/week.
Tumor burden was assessed and quantified by detection of hCD138 positive (hCD138+) cells in the bone marrow. Bone marrow cells from mouse femur and tibia were pooled and assessed for human CD138+ expression using the Alexa Fluor 647 mouse anti-human CD138 clone MI15 (BD Biosciences #562097) according to the manufacturer's protocol. […] Data was analyzed using Flowjo (Tree Star, Inc., Ashland, Oreg.).
Mean survival, survival delay, and tumor burden, during and at the study endpoint, were analyzed using a one-way analysis of variance (ANOVA) with Dunnett's multiple comparison test. […]

With `CC(C)C[C@H](NC(=O)[C@H](Cc1ccccc1)NC(=O)c1cnccn1)B(O)O` [Velcade] the mean survival (0.8 mg/kg q7dx2 IP) was 40.6 days.
For “Daratumumab: MM standard of care agent, clinical grade”, the “effect on survival compared to vehicle control” value (3 or 10 mg/kg single IP) was “no significant effect on survival”.
